Experimental data published in a melting point compilation (Tetko et al.; mined from patent text by program, amines drawn as free bases though some values may be those of a salt).

melting point [°C] | Compound
128 to 129 | COc1cc(COc2nn(-c3ccccc3)cc2C=O)ccc1OCc1csc(N2CCOCC2)n1
167 | COC1CSC2=C(SC1)C(OC(=O)Oc1ccccc1)N(c1ccc(Cl)cn1)C2=O (configuration not stated)
148 to 150 | O=c1[nH]c2c(c(=O)n1CCCN1CCN(c3ccccc3OCC(F)(F)F)CC1)CCCC2
225 to 227 | COc1cc(F)ccc1Oc1c(Cl)nc(-c2ncccn2)nc1NS(=O)(=O)c1ccc(C(C)(C)C)cc1
97 to 100 | Cc1cc(C)cc(C(=O)N2CCNC(c3ccc(Cl)c(Cl)c3)C2)c1 (single isomer, unassigned; (+))
210 to 212 | O=C1OCCN1CCCN1C(=O)N2C[C@@H](Cc3ccccc3)N=C2c2[nH]c(C3CCCC3)nc21
120 to 135 | COc1cc2c(cc1Nc1ncc(Cl)c(N[C@@H]3CCCC[C@H]3NS(C)(=O)=O)n1)CCN(CC(=O)N1CCCC1)CC2
314 to 316 | O=C(CCCOc1ccc2nc3[nH]c(=O)[nH]c3cc2c1)NC1CCCCCC1
72.5 to 74.9 | COc1ccc(-c2cc(=O)n(CC=Cc3ccc(Cl)cc3)nc2-c2ccc(OC)c(F)c2)cc1F
202 to 204 | Cc1c(NC(=O)c2ccc(C#CC3(O)CCC3)cc2)ccc2cc(CNCC3CCOCC3)n(C)c12
267 to 268 | CCOc1cc2c(cc1OCC)[C@@H]1CN(C)CC[C@@H]1N=C2c1ccc(NS(=O)(=O)c2ccc(C)cc2)cc1
125 to 133 | O=C(/C=C/c1ccccc1[N+](=O)[O-])N1CCN(C(=O)c2cc(C(F)(F)F)cc(C(F)(F)F)c2)[C@H](Cc2c[nH]c3ccccc23)C1
53 to 56 | Oc1ccc(Cl)cc1CN1CCCCC1
83 | COc1cc(-c2nc3ccccc3n2Cc2cccc(Cl)c2)cc(OC)c1OC
52 to 53 | ClCc1nc2cc(Cl)cc(Cl)c2o1
175 to 178 | O=C(C1CCc2nc[nH]c2C1)N1CCc2ccccc21 (configuration not stated)

melting point [°C] | Compound
104 | Nc1ccc(S(=O)(=O)Oc2ccccc2)cc1[N+](=O)[O-]
227 | O=C(Nc1cccc(S(=O)(=O)N2CCCC2)c1)c1cnn2c(C(F)F)cc(-c3ccc(Cl)cc3)nc12
> 250 | CNC1Oc2cc(Cl)cc(-c3ccccc3F)c2O1 (configuration not stated)
142 to 147 | Fc1cc2c(cc1F)CC(n1c(-c3nnn[nH]3)c[nH]c1=S)C2
111 to 112 | O=[N+]([O-])c1cc(-c2nc3n(c2Cl)CCCC3)c(Cl)cc1Cl
124 to 126 | CC(C)(C)OC(=O)C(N)c1ccc(C(=O)O)cc1[N+](=O)[O-] (configuration not stated)
94 to 96 | CON(C)C(=O)c1cc(Br)cnc1N1CCCC1
105 to 106 | COc1cc(Nc2c(C#N)cnc3cc(/C=C/CN4CCOCC4)c(OC)cc23)c(Cl)cc1Cl
58.5 to 59.5 | COC(=O)c1ccc(F)c([N+](=O)[O-])c1
168 | Cc1ccc(S(=O)(=O)NC(=O)OCCc2ccc(-n3c(C4CCCCC4)nc4c(C)nc(C)cc43)cc2)cc1
169 | CCOC(=O)C1=C(C)Nc2nc(N3CCCCC3)nc(N3CCCCC3)c2C1c1cccc([N+](=O)[O-])c1 (configuration not stated)
185 | COc1cc(NC(C)=O)c(Cl)cc1C(=O)NN1CCN(Cc2ccccc2)CC1
162 to 164 | O=C(O)Cc1cccc(Oc2ccccc2Cl)c1[N+](=O)[O-]
95 | O=C1CCC(c2cccc(F)c2)(c2cccc(F)c2)CC1
182 to 184 | Cc1cncnc1N1CCC(C(N)=O)CC1

The next lines start with the molecule.

Compound | melting point [°C]
COc1ccc(C(=NOC(C)=O)c2cc(F)ccc2F)c(O)c1Cl | 130 to 131
CC(C)[C@]1(CCc2ccsc2)CC(O)=CC(=O)O1 | 117 to 123
Cc1sc(CCc2ccc(/C=C/CO)cc2)nc1-c1ccccc1 | 93 to 94
Cc1c(C)c2c(c(C)c1N)CC(C)(Cc1ccccc1)O2 (configuration not stated) | 68 to 69
OCCOC1=Nc2ccc(Cl)cc2C(c2ccccc2)=NC1 | 142 to 144
COc1c(C)c(N2CCN(c3ccc(OC(F)F)cc3)CC2)c(C)c2c1OC(C)(C)C2 | 151 to 152
CCOC(=O)c1cn2c(C)c(C)nc2c(O)c1CCC(=O)c1ccccc1 | 172 to 174
CCOP(=O)(/C=C/c1cn(-c2ccccc2)nc1OCc1ccc(OCc2csc(N3CCOCC3)n2)c(OC)c1)OCC | 93 to 94
Cc1nn(C(=O)NC(C)(C)CCc2ccccc2)c(=O)n1N | 87
CC(N=[N+]=[N-])C(=O)c1nc(C(C)(C)C)c(O)c(C(C)(C)C)n1 (configuration not stated) | 91 to 92
O=C(NC1CCC2(O)C3Cc4ccc(O)c5c4C2(CCN3CC2CC2)C1O5)c1ccccc1 (configuration not stated) | 182 to 185
CN(C)C(=O)C(O)C1c2ccccc2CCc2ccccc21 (configuration not stated) | 210 to 214
O=S1(=O)c2ccccc2Oc2cc(OCC(F)(F)F)ccc21 | 165 to 166
COCCOc1cc2ncnc(C3C(=O)N(C=O)c4ccccc43)c2cc1OC (configuration not stated) | 228 to 230
COc1ccc(CCNC(=O)/C=C/c2cccs2)cc1S(N)(=O)=O | 218 to 221
COc1ccc(N(C(=O)CN2C(=O)C(Cc3n[nH]c4c3CCCC4)C(=O)N(c3ccccc3)c3ccccc32)C(C)C)cc1 (configuration not stated) | 170 to 173
O=C(O)/C=C/c1ccc(C(=O)c2c(-c3ccc(O)cc3)sc3cc(O)ccc23)cc1 | 155 to 160
CNc1nc(-c2cncc(-c3ccccc3)c2)c2cc(OC)c(OC)cc2n1 | 177 to 179
COc1nc(F)cc2nc(SCc3ccccc3)nn12 | 121 to 122
CCOCCc1nc(N)cc(=O)[nH]1 | 167 to 170
CCCCn1nnc(-c2cccc(-c3ccnc4c(C(=O)c5cccs5)cnn34)c2)n1 | 90
CCn1ncc2c3noc(-c4ccc(Cl)cc4)c3cnc21 | 248 to 250

Compound | melting point [°C]
CCCCCCCCCC(=O)Nc1cc(C(=O)O)ccc1C | 246 to 250
C=C(C)Cc1c(O)c2c(c3c1CC(C)(C)N=C3c1ccccc1)CC(C)(C)O2 | 196 to 198
CCO/N=C(\C)[C@H]1CC[C@H]2[C@@H]3CC=C4C[C@@H](O)CC[C@]4(C)[C@H]3CC[C@]12C | 119 to 121
CC(C)(C)OC(=O)N1C2CCC1C(=O)C2 (configuration not stated) | 60 to 62
COc1cc2c3ccc(OC)c(OC)c3n(Cc3ccc(C(F)(F)F)cc3)c2cc1OC | 145 to 146
COCNC(=S)n1nc(Oc2ccc(C#N)cc2C(F)(F)F)cc1C | 89 to 90
CC(=O)OC1CSC(Oc2ccc(-c3cncnc3)nc2Cl)C(OC(C)=O)C1OC(C)=O (configuration not stated) | 168
CCCCNC(=O)OCC(=O)O | 83 to 84
CCCCc1oc2ccccc2c1-c1ccc(-c2ccc(OC(Cc3ccccc3)C(=O)O)cc2)cc1 (configuration not stated) | 169 to 170
O=S(=O)(Nc1n[nH]c(SCc2ccc(Oc3ccc(F)cc3)cc2)c1-c1ccccn1)c1c(Cl)cccc1Cl | 185 to 186
O=C(c1cccs1)c1cnn2c(-c3cccc(Br)c3)ccnc12 | 193 to 195
CCNC(=O)c1c(Cl)cccc1C(C)(C)C | 121 to 123
Cc1[nH]c(=O)[nH]c1C(=O)c1cccs1 | 212 to 215
Cc1noc(NS(=O)(=O)c2ccccc2-c2ccc(-c3ncco3)cc2CN(C)C(=O)Cc2ccccc2)c1C | 114 to 122
Cc1cccc(NC(=O)NCC(=O)N(CC(=O)OC2(C)CCCCC2)c2ccccc2)c1 | 192
CCN(C(C)=O)c1cccc(-c2ccc3nnc(N)n3n2)c1 | 192 to 193
CCc1cc2c(s1)-n1nc(C(=O)O)nc1CN=C2c1ccccc1Cl | 134 to 136
Cc1ccc(-c2nc(CI)c(C)o2)cc1 | 104 to 105
COc1cccc([C@H]2O[C@H](CC(=O)NCc3ccc(C(=O)O)cc3)C(=O)N(CC(C)(C)CO)c3ccc(Cl)cc32)c1OC | 143 to 144
CNC(=O)Nc1coc2ccccc2c1=O | 254
COC(=O)c1ccc(=O)[nH]c1 | 166 to 172
CCOC(=O)C1=C(COCCNc2nccs2)NC(C)=C(C(=O)OC)C1c1ccccc1Cl (configuration not stated) | 134

Compound | melting point [°C]
CCOCc1nc2c(N)nc3cc(/C=C/S(=O)(=O)c4ccccc4)ccc3c2n1CCCOC(C)C | 188 to 190
Cc1ccc2[nH]c(=O)c(=O)[nH]c2c1CN(C)Cc1ccccc1 | 205 to 206
CC(C=CC=C(C)c1cc(C(C)(C)C)cc(C(C)(C)C)c1)=CC(=O)O | 196 to 198
Clc1ccc(-c2nsc3cc(OCCCCBr)ccc23)cc1 | 68 to 69
O=C(CCCCN1CCC(Cc2ccccc2)CC1)c1ccc2c(c1)C(=O)c1cc(C(=O)CCCCN3CCC(Cc4ccccc4)CC3)ccc1-2 | 124 to 126
CCNC(CO)Cc1cc(OC)cc(OC)c1 (configuration not stated) | 82 to 83
CC=CCNc1cc(C(=O)O)cc(S(N)(=O)=O)c1Sc1ccc(N)cc1 | 242
NS(=O)(=O)C1(C2C(Cl)=CC=CN2C(F)(F)F)C=CC(Cl)=CC1Cl (configuration not stated) | 125 to 126
CS(=O)(=O)c1ccc(COc2cccc(C(=O)Nc3ccc(C#N)cc3)c2)cc1 | 209 to 210
CCCCCC[C@@H](CC(N)=O)N(CCC)C(=O)[C@H](CCCC(=O)O)NC(=O)c1cn(Cc2ccccc2)c2ccccc12 | 147 to 157
Cc1c(CCCCCC(=O)O)cccc1C(=O)c1ccc(Cl)cc1 | 82
CCC(=CC(CNC(=O)c1cnccn1)=NO)C(C)[N+](=O)[O-] (configuration not stated) | 120 to 121
CCOc1nc(N)nc2c1ncn2CCC(CO)CO | 150 to 152
COc1c(C)c(NC(=O)CC(C)(C)C)c(C)c2c1OCC2c1ccc(C(C)C)cc1 (configuration not stated) | 150 to 151
O=C(NCc1cccnc1)OCc1ccccc1 | 73.6 to 77.1
N[C@@H](CO)C(=O)NCc1ccccc1 | 76 to 80
COC(=O)c1c(Sc2nc(OC)cc(OC)n2)cccc1C(C)=O | 149 to 151
COc1ccc(Nc2ccc(O)cc2)c(CO)c1 | 96.5 to 97
CC(C)(C)c1cc(OCCCC#N)cc(C(C)(C)C)c1O | 67 to 69
Oc1ccc(I)nc1Cl | 142 to 143
COc1cccc(C(=O)O)c1I | 142 to 146
Cc1nc(C#Cc2ccccc2)sc1C | 55 to 60
